Reference: ChEMBL document CHEMBL1201862, “PubChem BioAssay data set” (2004)
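Test compounds were applied to cells in 96-well plates for 48 hours at 5 doses. GI50 is the concentration that inhibits growth by half.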 The source made the active and inactive calls. No stated cut-off is given here; in the data, active = GI50 up to about 1.1 µM and inactive = higher.

Assays:
Assay in all cases: NCI-60 cell line screen, 48 h
786-0 = system: 786-0
A498 = system: A498
A549 = system: A549
ACHN = system: ACHN
CAKI-1 = system: CAKI-1
CCRF-CEM = system: CCRF-CEM
COLO 205 = system: COLO 205
DU-145 = system: DU-145
EKVX = system: EKVX
HCT-116 = system: HCT-116
HCT-15 = system: HCT-15
HL-60 = system: HL-60
HOP-62 = system: HOP-62
HOP-92 = system: HOP-92
HT-29 = system: HT-29
Hs-578T = system: Hs-578T
IGROV-1 = system: IGROV-1
K562 = system: K562
KM12 = system: KM12
LOX IMVI = system: LOX IMVI
M14 = system: M14
MCF7 = system: MCF7
MDA-MB-231 = system: MDA-MB-231
MDA-MB-435 = system: MDA-MB-435
MDA-N = system: MDA-N
MOLT-4 = system: MOLT-4
Malme-3M = system: Malme-3M
NCI-H226 = system: NCI-H226
NCI-H23 = system: NCI-H23
NCI-H522 = system: NCI-H522
NCI/ADR-RES = system: NCI/ADR-RES
OVCAR-3 = system: OVCAR-3
OVCAR-4 = system: OVCAR-4
OVCAR-5 = system: OVCAR-5
OVCAR-8 = system: OVCAR-8
PC-3 = system: PC-3
RPMI-8226 = system: RPMI-8226
RXF 393 = system: RXF 393
SF-268 = system: SF-268
SF-295 = system: SF-295
SF-539 = system: SF-539
SK-MEL-28 = system: SK-MEL-28
SK-MEL-2 = system: SK-MEL-2
SK-MEL-5 = system: SK-MEL-5
SK-OV-3 = system: SK-OV-3
SN12C = system: SN12C
SNB-19 = system: SNB-19
SNB-75 = system: SNB-75
SR = system: SR
SW-620 = system: SW-620
T47D = system: T47D
TK-10 = system: TK-10
U-251 = system: U-251
UACC-257 = system: UACC-257
UO-31 = system: UO-31
NCI-H460 = system: NCI-H460
UACC-62 = system: UACC-62

Measured: GI50

O=C1NC(N2CCCCC2)=N/C1=C\c1ccccc1O
> 100 µM: HCT-15
inactive: 786-0 > 100 µM | A498 > 100 µM | A549 > 100 µM | ACHN > 100 µM | CAKI-1 > 100 µM | CCRF-CEM > 100 µM | COLO 205 > 100 µM | DU-145 > 100 µM | EKVX > 100 µM | HCT-116 > 100 µM | HL-60 43.5 µM | HOP-62 > 100 µM | HOP-92 > 100 µM | HT-29 > 100 µM | Hs-578T 77.3 µM | IGROV-1 > 100 µM | K562 > 100 µM | KM12 > 100 µM | LOX IMVI > 100 µM | M14 > 100 µM | MCF7 > 100 µM | MDA-MB-231 > 100 µM | MDA-MB-435 > 100 µM | MDA-N > 100 µM | MOLT-4 > 100 µM | Malme-3M 23 µM | NCI-H226 36.6 µM | NCI-H23 > 100 µM | NCI-H522 19.8 µM | NCI/ADR-RES > 100 µM | OVCAR-3 > 100 µM | OVCAR-4 13 µM | OVCAR-5 > 100 µM | OVCAR-8 > 100 µM | PC-3 > 100 µM | RPMI-8226 > 100 µM | RXF 393 > 100 µM | SF-268 > 100 µM | SF-295 > 100 µM | SF-539 37.1 µM | SK-MEL-28 > 100 µM | SK-MEL-2 > 100 µM | SK-MEL-5 50.2 µM | SK-OV-3 > 100 µM | SN12C > 100 µM | SNB-19 > 100 µM | SNB-75 27.9 µM | SR > 10 µM | SW-620 > 100 µM | T47D > 100 µM | TK-10 > 100 µM | U-251 > 100 µM | UACC-257 > 100 µM | UO-31 > 100 µM

Cc1ccc(S(=O)(=O)N/N=C2\CC(C)OC3=C2CCCCCC3)cc1 (stereo not drawn)
inactive: 786-0 17.1 µM | A498 15.5 µM | A549 16.7 µM | ACHN 18.5 µM | CAKI-1 25.9 µM | CCRF-CEM 24.7 µM | COLO 205 20.9 µM | DU-145 19.4 µM | EKVX 15.2 µM | HCT-116 16.5 µM | HL-60 23 µM | HOP-62 18.5 µM | HOP-92 19.6 µM | HT-29 17.5 µM | Hs-578T 21.2 µM | IGROV-1 19.1 µM | K562 21.5 µM | KM12 19.7 µM | LOX IMVI 18.7 µM | M14 20.3 µM | MCF7 19 µM | MDA-MB-231 19.1 µM | MDA-MB-435 18.5 µM | MDA-N > 100 µM | MOLT-4 14.6 µM | Malme-3M 21.7 µM | NCI-H226 21.6 µM | NCI-H23 20.5 µM | NCI-H460 > 100 µM | NCI/ADR-RES 20.5 µM | OVCAR-3 19.7 µM | OVCAR-4 19.8 µM | OVCAR-5 19.5 µM | OVCAR-8 21.2 µM | PC-3 19.2 µM | RPMI-8226 21.9 µM | RXF 393 17.6 µM | SF-268 19.9 µM | SF-295 15.8 µM | SF-539 20.5 µM | SK-MEL-28 22.1 µM | SK-MEL-5 16.9 µM | SK-OV-3 26.1 µM | SN12C 19.3 µM | SNB-19 22.2 µM | SNB-75 24.2 µM | SR 17 µM | SW-620 20.5 µM | T47D 76.6 µM | TK-10 20.5 µM | UACC-257 18.7 µM | UACC-62 14.5 µM | UO-31 17.4 µM
